# Key:
# [1] = test system: GABA binding site / benzodiazepine binding site; conditions: Tallman et al. 1978; cited from earlier work
# GABAa receptor = GABAa receptor binding activity ([3H]-RO15-1788 displacement, rat cortical tissue); conditions: 0.5 nM [3H]-RO15-1788, 30 min at 4° C., nonspecific with 1.0 μM diazepam
# Procedure: The pharmaceutical utility of compounds of this invention are indicated by the following assay for GABAa receptor binding activity.
# Assays are carried out as described in Thomas and Tallman (J. Bio. Chem. 156:9838-9842, J. Neurosci. 3:433-440, 1983). Rat conical tissue is dissected and homogenized in 25 volumes (w/v) of 0.05M Tris HCl buffer (pH 7.4 at 4° C.). The tissue homogenate is centrifuged in the cold (4°) at 20,000×g for 20'. The supernatant is decanted and the pellet is rehomogenized in the same volume of buffer and again centrifuged at 20,000×g. The supernatant is decanted and the pellet is frozen at -20° C. overnight. The pellet is then thawed and rehomogenized in 25 volume (original wt/vol) of buffer and the procedure is carried out twice. The pellet is finally resuspended in 50 volumes (w/vol of 0.05M Tris HCl buffer (pH 7.4 at […]).
# Incubations contain 100 μl of tissue homogenate, 100 μl of radioligand 0.5 nM (^3 H-RO15 -1788 [^3 H-Flumazenil] specific activity 80 Ci/mmol), drug or blocker and buffer to a total volume of 500 μl. Incubations are carried for 30 min at 4° C. then are rapidly filtered through GFB filters to separate free and bound ligand. Filters are washed twice with fresh 0.05M Tris HCl buffer (pH 7.4 at 4° C.) and counted in a liquid scintillation counter. 1.0 μM diazepam is added to some tubes to determine nonspecific binding. Data are collected in triplicate determinations, averaged and % inhibition of total specific binding is calculated. Total Specific Binding=Total-Nonspecific. In sonic cases, the amounts of unlabeled drugs is varied and total displacement curves of binding are carried out. Data are converted to a form for the calculation of IC50 and Hill Coefficient (nH).
SMILES,block of enhancement of benzodiazepine binding by GABA agonists [1],IC50 (GABAa receptor) [µM]
"CN1CCc2cc3c(cc2C1C1OC(=O)c2c1ccc1c2OCO1)OCO3 (single isomer, unassigned; (+)) [(+) bicuculline]",blocked,–
"CN1CCc2cc3c(cc2C1C1OC(=O)c2c1ccc1c2OCO1)OCO3 (single isomer, unassigned; (-)) [(-) bicuculline]",much less active,–
"COc1ccc(-c2ncc3[nH]c4ccccc4n3c2=O)cc1 [Compound 1, 2-(4-Methoxyphenyl)-benzimidazo[1,2-a]pyrazin-1(5H)-one]",–,0.015
"COc1ccc(F)c(-c2ncc3[nH]c4ccccc4n3c2=O)c1 [Compound 2, 2-(2-Fluoro-5-methoxyphenyl)-benzimidazo[1,2-a]pyrazin-1(5H)-one]",–,0.167
"O=c1c(-c2ccccc2)ncc2[nH]c3ccccc3n12 [Compound 3, 2-Phenyl-benzimidazo[1,2-a]pyrazin-1(5H)-one]",–,0.093
COc1cccc(-c2ncc3[nH]c4ccccc4n3c2=O)c1 [Compound 4],–,0.061
